Measured values published in PubChem BioAssay AID256 (DTP/NCI, 2004).
Values joined by “and” are separate entries in the source; they are usually repeats but may differ in a detail not shown here. Equal values may be shown once. Inconclusive results and toxic doses are left out. Rule for the calls: active = survival T/C of 150% or more; inactive = T/C below 125% in these data.

Tested on: CD2F1 mice, L1210 leukemia ip, survival T/C
Assay: NCI In Vivo Anticancer Drug Screen. Data for tumor model L1210 Leukemia (intraperitoneal) in CD2F1 (CDF1) mice
Details: higher = longer survival
In short: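 Mice carrying a transplanted tumor received test compound or vehicle alone. The value is the measurement in the treated group divided by that in the vehicle-treated control group.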

[1] = endpoint: mean survival time, dose: 100.0 mg/kg/injection, schedule: Q04DX003 (ip), vehicle: saline with Tween-80
[2] = endpoint: mean survival time, dose: 200.0 mg/kg/injection, schedule: Q04DX003 (ip), vehicle: saline with Tween-80
[3] = endpoint: mean survival time, dose: 400.0 mg/kg/injection, schedule: Q04DX003 (ip), vehicle: saline with Tween-80
[4] = endpoint: mean survival time, dose: 100.0 mg/kg/injection, schedule: Q01DX009 (ip), vehicle: saline with Tween-80
[5] = endpoint: mean survival time, dose: 200.0 mg/kg/injection, schedule: Q01DX009 (ip), vehicle: saline with Tween-80
[6] = endpoint: mean survival time, dose: 100.0 mg/kg/injection, schedule: Q01DX001 (ip), vehicle: saline
[7] = endpoint: mean survival time, dose: 200.0 mg/kg/injection, schedule: Q01DX001 (ip), vehicle: saline
[8] = endpoint: mean survival time, dose: 400.0 mg/kg/injection, schedule: Q01DX001 (ip), vehicle: saline
[9] = endpoint: mean survival time, dose: 25.0 mg/kg/injection, schedule: Q04DX003 (ip), vehicle: saline with Tween-80
[10] = endpoint: mean survival time, dose: 400.0 mg/kg/injection, schedule: Q01DX009 (ip), vehicle: saline with Tween-80

Measured: T/C

CC(=O)OCCC(C)Nc1ccnc2cc(Cl)ccc12 (stereo not drawn)
inactive: endpoint: mean survival time, dose: 10.0 mg/kg/injection, schedule: Q01DX009 (ip), vehicle: saline with Tween-80 100 % of control | endpoint: mean survival time, dose: 20.0 mg/kg/injection, schedule: Q01DX009 (ip), vehicle: saline with Tween-80 102 % of control | endpoint: mean survival time, dose: 40.0 mg/kg/injection, schedule: Q01DX009 (ip), vehicle: saline with Tween-80 96 % of control | [1] 100 % of control

Nc1ccc(OCC(=O)O)cc1
inactive: endpoint: mean survival time, dose: 100.0 mg/kg/injection, schedule: Q01DX001 (ip), vehicle: saline with Tween-80 101 % of control | endpoint: mean survival time, dose: 200.0 mg/kg/injection, schedule: Q01DX001 (ip), vehicle: saline with Tween-80 98 % of control | endpoint: mean survival time, dose: 400.0 mg/kg/injection, schedule: Q01DX001 (ip), vehicle: saline with Tween-80 110 % of control

CC(=O)Nc1cccc(OCOc2ccc([N+](=O)[O-])cc2)c1
inactive: endpoint: mean survival time, dose: 100.0 mg/kg/injection, schedule: Q01DX001 (ip), vehicle: Klucel (hydroxypropylcellulose) (HPC) 90 % of control | endpoint: mean survival time, dose: 200.0 mg/kg/injection, schedule: Q01DX001 (ip), vehicle: Klucel (hydroxypropylcellulose) (HPC) 110 % of control | endpoint: mean survival time, dose: 400.0 mg/kg/injection, schedule: Q01DX001 (ip), vehicle: Klucel (hydroxypropylcellulose) (HPC) 97 % of control

O=C(O)C1Cc2c([nH]c3ccccc23)C2CC(C3CC4c5[nH]c6ccccc6c5CC(C(=O)O)N4C3=O)C(=O)N12 (stereo not drawn)
inactive: endpoint: mean survival time, dose: 100.0 mg/kg/injection, schedule: Q04DX002 (ip), vehicle: saline with Tween-80 97 % of control | endpoint: mean survival time, dose: 200.0 mg/kg/injection, schedule: Q04DX002 (ip), vehicle: saline with Tween-80 93 % of control | endpoint: mean survival time, dose: 400.0 mg/kg/injection, schedule: Q04DX002 (ip), vehicle: saline with Tween-80 89 % of control

COC(=O)/C(C#N)=C(\C)CC(C)C
inactive: endpoint: mean survival time, dose: 75.0 mg/kg/injection, schedule: Q01DX001 (ip), vehicle: saline 100 % of control | endpoint: mean survival time, dose: 150.0 mg/kg/injection, schedule: Q01DX001 (ip), vehicle: saline 94 % of control

CC(C)(C)C(=O)CC(=O)C(C)(C)C.CC(C)(C)C(=O)CC(=O)C(C)(C)C.CC(C)(C)C(=O)CC(=O)C(C)(C)C.[Dy]
inactive: [1] 97 % of control | [2] 94 % of control | [3] 94 % of control

COc1cc(C=Nc2cccc(F)c2)ccc1N(CCCl)CCCl
active: endpoint: mean survival time, dose: 16.0 mg/kg/injection, schedule: Q01DX015 (ip), vehicle: saline 157 % of control
inactive: endpoint: mean survival time, dose: 25.0 mg/kg/injection, schedule: Q01DX001 (ip), vehicle: other 121 % of control | endpoint: mean survival time, dose: 50.0 mg/kg/injection, schedule: Q01DX001 (ip), vehicle: other 119 % of control

Cc1nc2[nH]c(=S)[nH]c(=O)c2nc1C
inactive: [1] 97 % of control | [2] 90 % of control | [3] 90 % of control

NP(=O)(OC(c1ccccc1)C12CC3CC(CC(C3)C1)C2)N(CCCl)CCCl (stereo not drawn)
inactive: endpoint: mean survival time, dose: 62.5 mg/kg/injection, schedule: Q01DX001 (ip), vehicle: other 92 % of control | endpoint: mean survival time, dose: 125.0 mg/kg/injection, schedule: Q01DX001 (ip), vehicle: other 97 % of control | endpoint: mean survival time, dose: 250.0 mg/kg/injection, schedule: Q01DX001 (ip), vehicle: other 102 % of control | endpoint: mean survival time, dose: 500.0 mg/kg/injection, schedule: Q01DX001 (ip), vehicle: other 105 % of control

CCN(CC)c1cc(Nc2c3ccc(Cl)cc3nc3cc(Cl)ccc23)ccc1O
inactive: [4] 102 % of control | [1] 97 % of control | [5] 104 % of control | [2] 100 % of control | [3] 117 % of control

Oc1cc(O)cc(/C=C/c2ccc(O)c(O)c2)c1
inactive: endpoint: median survival time, dose: 6.25 mg/kg/injection, schedule: Q01DX009 (ip), vehicle: DMSO 103 % of control | endpoint: median survival time, dose: 12.5 mg/kg/injection, schedule: Q01DX009 (ip), vehicle: DMSO 109 % of control | endpoint: median survival time, dose: 25.0 mg/kg/injection, schedule: Q01DX009 (ip), vehicle: DMSO 108 % of control and 109 % of control | endpoint: median survival time, dose: 50.0 mg/kg/injection, schedule: Q01DX009 (ip), vehicle: DMSO 108 % of control and 109 % of control | endpoint: median survival time, dose: 100.0 mg/kg/injection, schedule: Q01DX009 (ip), vehicle: DMSO 109 % of control

COC(=O)C(CCl)NC(N)=O (stereo not drawn)
inactive: [6] 104 % of control | [7] 101 % of control | [8] 104 % of control

COc1cccc2c1C(=O)c1c(OC)c(C)cc(OC)c1C2=O
inactive: endpoint: mean survival time, dose: 12.5 mg/kg/injection, schedule: Q01DX009 (ip), vehicle: other 113 % of control | endpoint: mean survival time, dose: 25.0 mg/kg/injection, schedule: Q01DX009 (ip), vehicle: other 110 % of control | endpoint: mean survival time, dose: 50.0 mg/kg/injection, schedule: Q01DX009 (ip), vehicle: other 110 % of control | endpoint: mean survival time, dose: 100.0 mg/kg/injection, schedule: Q01DX009 (ip), vehicle: other 110 % of control | endpoint: mean survival time, dose: 200.0 mg/kg/injection, schedule: Q01DX009 (ip), vehicle: other 117 % of control

CC(C)(C)NSc1nc2ccccc2s1
inactive: [1] 96 % of control | [2] 96 % of control

COc1ccccc1[As](=O)(O)CC(O)COc1ccccc1 (stereo not drawn)
inactive: endpoint: mean survival time, dose: 6.25 mg/kg/injection, schedule: Q04DX003 (ip), vehicle: saline with Tween-80 103 % of control | endpoint: mean survival time, dose: 12.5 mg/kg/injection, schedule: Q04DX003 (ip), vehicle: saline with Tween-80 104 % of control | [9] 113 % of control

CC[C@@]1(O)C(=O)OCc2c1cc1n(c2=O)Cc2cc3ccccc3nc2-1
inactive: endpoint: mean survival time, dose: 0.78 mg/kg/injection, schedule: Q04DX003 (ip), vehicle: water 120 % of control | endpoint: mean survival time, dose: 6.25 mg/kg/injection, schedule: Q04DX003 (ip), vehicle: other 124 % of control | endpoint: mean survival time, dose: 12.5 mg/kg/injection, schedule: Q04DX003 (ip), vehicle: water 95 % of control | endpoint: mean survival time, dose: 25.0 mg/kg/injection, schedule: Q04DX003 (ip), vehicle: other 119 % of control
active: endpoint: mean survival time, dose: 1.56 mg/kg/injection, schedule: Q04DX003 (ip), vehicle: water 156 % of control | endpoint: mean survival time, dose: 3.13 mg/kg/injection, schedule: Q04DX003 (ip), vehicle: other 159 % of control | endpoint: mean survival time, dose: 3.13 mg/kg/injection, schedule: Q04DX003 (ip), vehicle: water 156 % of control

CC(=O)Nc1cccc(C(C)=O)c1[N+](=O)[O-]
inactive: [4] 102 % of control | [5] 97 % of control | [10] 93 % of control

c1ccc2c(-c3nnn4ccccc34)cccc2c1
inactive: [6] 89 % of control | [7] 106 % of control | [8] 97 % of control

CC1(C)C(C(=O)/C=C/c2ccccc2)C1[N+](=O)[O-] (stereo not drawn)
inactive: endpoint: mean survival time, dose: 100.0 mg/kg/injection, schedule: Q04DX002 (ip), vehicle: other 97 % of control | endpoint: mean survival time, dose: 200.0 mg/kg/injection, schedule: Q04DX002 (ip), vehicle: other 97 % of control | endpoint: mean survival time, dose: 400.0 mg/kg/injection, schedule: Q04DX002 (ip), vehicle: other 97 % of control

OCC(O)C1OC(c2ccccc2)OC(CO)C1O (stereo not drawn)
inactive: endpoint: mean survival time, dose: 100.0 mg/kg/injection, schedule: Q04DX003 (ip), vehicle: saline + alcohol 106 % of control | endpoint: mean survival time, dose: 200.0 mg/kg/injection, schedule: Q04DX003 (ip), vehicle: saline + alcohol 100 % of control | endpoint: mean survival time, dose: 400.0 mg/kg/injection, schedule: Q04DX003 (ip), vehicle: saline + alcohol 95 % of control

Clc1ccc(-c2cc(C3CO3)c3cc(Cl)cc(Cl)c3n2)cc1 (stereo not drawn)
inactive: [6] 91 % of control | [7] 97 % of control | [8] 91 % of control

CCCCS(=O)C(Cl)CCC (stereo not drawn)
inactive: [1] 97 % of control | [2] 100 % of control

COC1OC2COC(c3ccccc3)OC2C2OC12 (stereo not drawn)
inactive: [4] 94 % of control | [5] 92 % of control | [10] 97 % of control

COC12[C@@H]3N[C@@H]3CN1C1=C(C(=O)C(N(C)CCN(C)C)=C(C)C1=O)[C@@H]2COC(N)=O (stereo partly drawn)
inactive: endpoint: median survival time, dose: 3.0 mg/kg/injection, schedule: Q01DX001 (ip), vehicle: saline 104 % of control | endpoint: median survival time, dose: 6.0 mg/kg/injection, schedule: Q01DX001 (ip), vehicle: saline 105 % of control | endpoint: median survival time, dose: 12.0 mg/kg/injection, schedule: Q01DX001 (ip), vehicle: saline 119 % of control and 105 % of control | endpoint: median survival time, dose: 24.0 mg/kg/injection, schedule: Q01DX001 (ip), vehicle: saline 109 % of control

CCCCCCCCC/C(C)=N\NC(=O)c1ccccc1
inactive: endpoint: mean survival time, dose: 100.0 mg/kg/injection, schedule: Q01DX009 (ip), vehicle: saline sonified 100 % of control | endpoint: mean survival time, dose: 400.0 mg/kg/injection, schedule: Q01DX009 (ip), vehicle: saline sonified 108 % of control

CN(Cc1ccccc1)C1CCC(C(=O)O)CC1 (stereo not drawn)
inactive: endpoint: mean survival time, dose: 100.0 mg/kg/injection, schedule: Q01DX009 (ip), vehicle: saline 107 % of control | endpoint: mean survival time, dose: 200.0 mg/kg/injection, schedule: Q01DX009 (ip), vehicle: saline 107 % of control | endpoint: mean survival time, dose: 400.0 mg/kg/injection, schedule: Q01DX009 (ip), vehicle: saline 100 % of control

N#Cc1ccccc1C#N
inactive: [9] 97 % of control
